Assays:
MV4-11 cells = assay: MV4-11 cell proliferation inhibition assay (MTS); format: cell-based; details: MTS read on the third day
Experimental: (a) SHP099 and TNO155 were used as positive controls.
(b) MV4-11 cells (10,000 cells/well) were seeded in a 96-well culture plate with 100 μL/well of the culture medium (IMDM supplemented with 10% fetal bovine serum (FBS), from Gibco company), and cultured for 6 hours. The compounds formulated in different concentrations of the present invention were added. On the third day, 20 μL of MTS reagent (purchased from Promega Company) was added to each well, and the absorbance value was detected according to the reagent instructions (Promega Company). The IC50 of the inhibitory activity of the compounds of the present invention against the MV4-11 cell proliferation is shown in Table 2.

[1] = tested on: p-ERK 1/2 (Thr202/Tyr204) in MIAPaca-2 cells; assay: Cell protein kinase (p-ERK) phosphorylation inhibition, AlphaLISA; format: cell-based; details: treated for 2 hours
Experimental: The inhibition of the phosphorylation level of intracellular protein kinase (ERK) by a compound was detected by AlphaLISA method. The first step was to treat the cells with the compound. The compound to be tested was first diluted 5-fold with 100% DMSO, and a gradient including a total of 9 different concentrations was set; then MIAPaca-2 cells were inoculated into a 96-well plate at a density of 40,000 cells per well, with a volume of 80 μL per well; then 20 μL of DMSO or the compound to be tested with different concentrations was added to each well, with 2 replicates for each concentration, and the final concentration of DMSO was controlled at 0.5%. The second step was to lyse the cells. After the cells were treated for 2 hours, the culture medium was removed, and the cells were washed three times with a HBSS solution. 50 μL of a freshly prepared lysis buffer was added to each well, shaken, and left at room temperature for 10 minutes. […] 10 μL of the above lysate was put into a 384-well plate (Perkin Elmer, 6005350), and the phosphorylation level of the extracellular signal-regulated kinase in the sample was detected according to the manufacturer's instructions. Signals were read using the AlphaScreen detector on an Envision multifunctional microplate reader (PerkinElmer). The inhibition (%) was calculated by the following equation: […]

SMILES: CC1(N)CCN(c2cnc(-c3cccc(Cl)c3Cl)c(N)n2)CC1 [SHP099]
- IC50 (MV4-11 cells): 883 ± 105 nM

SMILES: C[C@@H]1OCC2(CCN(c3cnc(Sc4ccnc(N)c4Cl)c(N)n3)CC2)[C@@H]1N [TNO155]
- IC50 [1]: 30 nM
- IC50 (MV4-11 cells): 118 ± 5.8 nM
